Source: US12643881B2, “Bicyclic amine CDK12 inhibitors” (Incyte Corporation, priority 2021, dated 2026)

Biological target: T1, CDK12 complexed with Cyclin K (Homo sapiens, UniProt Q9NYV4)
T1 construct: GST (N)
Experiment: CDK Enzymatic Assays (HTRF, LANCE Ultra kinase assay), Example A1
Type: biochemical
Details: enzyme pre-incubated with compounds for 60 minutes prior to addition of ATP (1 mM final) and Ulight-peptide; reaction 60-90 minutes at room temperature
Text: Example A1. CDK Enzymatic Assays
The following activity of the CDK enzymes in complex with their respective cyclins we assayed: CDK1 complexed with Cyclin B1; CDK2 complexed with Cyclin E1; CDK4 complexed with Cyclin D1; CDK6 complexed with Cyclin D1; CDK6 complexed with Cyclin D3; CDK9 complexed with Cyclin T1; CDK7 complexed with Cyclin H/MAT1; CDK2 complexed with Cyclin A2; CDK5 complexed with p35; CDK12 complexed with Cyclin K; CDK13 complexed with Cyclin K. These in vitro enzyme activity are assayed using homogeneous time-resolved energy transfer (HTRF), which measures phosphorylation of a peptide substrate. The LANCER Ultra kinase assay (PerkinElmer) uses a ULight™-labeled EIF4E-binding protein 1 (THR37/46) peptide (DYSTTPGGTLFSTTPGTRI (SEQ ID NO: 1)) substrate and a Europium-labeled anti-phospho-4E-BP1 antibody (CDK2, CDK1, CDK4, CDK6, CDK9, CDK12, CDK13) or ULight™-labeled Myelin Basic Protein peptide (VTPRTPPP (SEQ ID NO: 2)) substrate and a Europium-labeled anti-phospho-MBP antibody (CDK7). Each CDK enzyme activity assays utilized human CDK co-expressed as N-terminal GST-tagged protein with its full length cyclin partner using a baculovirus expression system.
Enzyme was pre-incubated with compounds for 30 minutes (CDK1,2,4,6,9) or 60 minutes (CDK7, CDK12, CDK13) prior to addition of ATP and Ulight-peptide (1 mM and 50 nM final, respectively), in assay buffer containing 50 mM HEPES pH 7.5, 1 mM EGTA, 10 mM MgCl2, 2 mM DTT, 0.05 mg/mL BSA, and 0.01% Tween 20. The reaction was then incubated for 60-90 minutes at room temperature. The reactions were stopped by the addition of EDTA and Europium labeled antibody, for a final concentration of 15 mM and 1.0-1.5 nM, respectively. HTRF signals were read after 15-120 minutes. A ratio of fluorescence transferred to the labeled substrate (665 nm) relative to fluorescence of the Europium donor (620 nm) represents the extent of phosphorylation. Ratios for treated wells were normalized to DMSO only (100% activity) and no enzyme (0% activity) controls. Normalized data was analyzed using a three or four parameter dose response curve to determine IC50 for each compound and are shown in Table A. Control reference inhibitors were included on each plate.

T1 sequence (Q9NYV4 whole entry): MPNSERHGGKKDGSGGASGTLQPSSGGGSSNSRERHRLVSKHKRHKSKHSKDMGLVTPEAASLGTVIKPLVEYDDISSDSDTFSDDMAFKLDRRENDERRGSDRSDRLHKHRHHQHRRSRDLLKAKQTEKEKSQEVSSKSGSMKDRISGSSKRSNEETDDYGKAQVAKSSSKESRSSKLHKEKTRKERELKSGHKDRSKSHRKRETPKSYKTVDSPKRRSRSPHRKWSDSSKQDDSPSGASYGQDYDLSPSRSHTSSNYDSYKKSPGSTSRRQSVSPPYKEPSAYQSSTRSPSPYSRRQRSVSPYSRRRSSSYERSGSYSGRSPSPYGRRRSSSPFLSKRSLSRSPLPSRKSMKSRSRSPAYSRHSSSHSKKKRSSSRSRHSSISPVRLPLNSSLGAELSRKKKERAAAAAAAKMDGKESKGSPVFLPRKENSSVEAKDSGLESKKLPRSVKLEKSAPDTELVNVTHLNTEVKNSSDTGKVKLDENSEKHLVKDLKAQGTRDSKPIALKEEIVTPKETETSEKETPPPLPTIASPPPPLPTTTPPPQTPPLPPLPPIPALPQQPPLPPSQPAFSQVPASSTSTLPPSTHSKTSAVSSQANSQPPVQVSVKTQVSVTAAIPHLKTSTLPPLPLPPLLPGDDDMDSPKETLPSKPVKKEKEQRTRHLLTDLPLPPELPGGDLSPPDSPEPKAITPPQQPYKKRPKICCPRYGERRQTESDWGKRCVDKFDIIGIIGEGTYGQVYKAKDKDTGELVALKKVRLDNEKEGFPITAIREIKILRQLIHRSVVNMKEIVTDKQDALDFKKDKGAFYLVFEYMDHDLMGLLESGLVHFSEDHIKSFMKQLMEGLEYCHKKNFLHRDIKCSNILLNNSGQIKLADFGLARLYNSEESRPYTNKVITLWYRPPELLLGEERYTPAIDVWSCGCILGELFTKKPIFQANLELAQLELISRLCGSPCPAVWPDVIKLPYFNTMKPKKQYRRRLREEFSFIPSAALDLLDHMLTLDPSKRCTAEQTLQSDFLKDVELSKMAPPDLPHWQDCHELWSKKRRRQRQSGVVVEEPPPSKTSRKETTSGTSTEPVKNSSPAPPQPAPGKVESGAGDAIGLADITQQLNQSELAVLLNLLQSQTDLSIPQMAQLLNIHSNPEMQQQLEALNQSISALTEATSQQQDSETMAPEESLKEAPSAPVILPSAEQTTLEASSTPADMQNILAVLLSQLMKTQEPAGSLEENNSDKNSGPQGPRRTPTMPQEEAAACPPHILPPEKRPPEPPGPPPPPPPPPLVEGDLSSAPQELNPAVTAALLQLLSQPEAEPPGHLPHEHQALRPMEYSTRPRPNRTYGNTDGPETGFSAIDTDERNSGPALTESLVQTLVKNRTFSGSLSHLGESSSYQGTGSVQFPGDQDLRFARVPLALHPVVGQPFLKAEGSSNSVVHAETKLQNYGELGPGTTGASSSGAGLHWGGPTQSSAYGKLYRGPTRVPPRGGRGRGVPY
T1 sequence (O75909 whole entry partner): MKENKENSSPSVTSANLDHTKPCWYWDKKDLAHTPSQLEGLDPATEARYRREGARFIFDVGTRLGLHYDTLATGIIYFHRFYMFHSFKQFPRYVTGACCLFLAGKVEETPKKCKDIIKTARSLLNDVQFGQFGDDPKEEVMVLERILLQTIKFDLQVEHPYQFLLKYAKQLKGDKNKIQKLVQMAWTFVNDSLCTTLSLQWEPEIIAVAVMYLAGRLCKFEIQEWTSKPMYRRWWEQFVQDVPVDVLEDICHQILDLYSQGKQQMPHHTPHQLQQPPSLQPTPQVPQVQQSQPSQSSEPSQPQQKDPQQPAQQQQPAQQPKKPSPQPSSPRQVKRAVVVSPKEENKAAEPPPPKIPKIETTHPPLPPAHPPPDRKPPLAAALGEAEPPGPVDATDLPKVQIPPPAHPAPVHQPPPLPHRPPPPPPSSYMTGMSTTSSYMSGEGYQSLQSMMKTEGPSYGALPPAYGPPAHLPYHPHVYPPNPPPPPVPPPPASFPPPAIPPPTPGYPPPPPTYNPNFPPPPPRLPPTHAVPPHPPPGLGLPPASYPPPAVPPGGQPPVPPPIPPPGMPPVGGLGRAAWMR

With COc1nc(N[C@@H]2CCC[C@H](N3Cc4ccc(NC(=O)/C=C/CF)cc4C3=O)C2)ncc1C#N [Example 57, (E)-N-(2-((1S,3R)-3-((5-Cyano-4-methoxypyrimidin-2-yl)amino)cyclohexyl)-3-oxoisoindolin-5-yl)-4-fluorobut-2-enamide] as the molecule, how does the IC50 read?
The IC50 was 50 to 500 nM.

Which IC50 does the source give for COc1nc(N[C@@H]2CCC[C@H](N3Cc4ccc(NC(=O)CBr)cc4C3=O)C2)ncc1C#N [Example 58, 2-Bromo-N-(2-((1S,3R)-3-((5-cyano-4-methoxypyrimidin-2-yl)amino)cyclohexyl)-3-oxoisoindolin-5-yl)acetamide] here?
Its IC50 is under 50 nM.

For COc1nc(N[C@@H]2CCC[C@H](N3Cc4ccc(NC(=O)CCl)cc4C3=O)C2)ncc1C#N [Example 59, 2-Chloro-N-(2-((1S,3R)-3-((5-cyano-4-methoxypyrimidin-2-yl)amino)cyclohexyl)-3-oxoisoindolin-5-yl)acetamide], which IC50 is on record?
The IC50 was under 50 nM.

For CC#CC(=O)Nc1ccc2c(c1)C(=O)N([C@H]1CCC[C@@H](Nc3ncc(C#N)c(OC)n3)C1)C2 [Example 60, N-(2-((1S,3R)-3-((5-Cyano-4-methoxypyrimidin-2-yl)amino)cyclohexyl)-3-oxoisoindolin-5-yl)but-2-ynamide], which IC50 is on record?
Its IC50 is 50 to 500 nM.

How did the IC50 turn out when C=CC(=O)Nc1ccc2c(c1)C(=O)N([C@H]1CCC[C@@H](Nc3ncc(C(F)(F)F)c(OC)n3)C1)C2 [Example 61, N-(2-((1S,3R)-3-((4-Methoxy-5-(trifluoromethyl)pyrimidin-2-yl)amino)cyclohexyl)-3-oxoisoindolin-5-yl)acrylamide] was run?
The IC50 was under 50 nM.

With C=CC(=O)Nc1ccc2c(c1)C(=O)N([C@H]1CCC[C@@H](Nc3ncc(C(F)(F)F)c(N4CC[C@@H](N(C)C)C4)n3)C1)C2 [Example 62, N-(2-((1S,3R)-3-((4-((R)-3-(Dimethylamino)pyrrolidin-1-yl)-5-(trifluoromethyl)pyrimidin-2-yl)amino)cyclohexyl)-3-oxoisoindolin-5-yl)acrylamide] as the molecule, how does the IC50 read?
The IC50 was under 50 nM.

Which IC50 does the source give for COc1nc(N[C@@H]2CCC[C@H](N3Cc4ccc(NC(=O)/C=C/CN(C)C)cc4C3=O)C2)ncc1C#N [Example 63, (E)-N-(2-((1S,3R)-3-((5-Cyano-4-methoxypyrimidin-2-yl)amino)cyclohexyl)-3-oxoisoindolin-5-yl)-4-(dimethylamino)but-2-enamide] here?
The IC50 was under 50 nM.

How did the IC50 turn out when C/C=C/C(=O)Nc1ccc2c(c1)C(=O)N([C@H]1CCC[C@@H](Nc3ncc(C#N)c(OC)n3)C1)C2 [Example 64, (E)-N-(2-((1S,3R)-3-((5-Cyano-4-methoxypyrimidin-2-yl)amino)cyclohexyl)-3-oxoisoindolin-5-yl)but-2-enamide] was run?
Its IC50 is over 500 nM.

Which IC50 does the source give for C=CC(=O)N(C)c1ccc2c(c1)C(=O)N([C@H]1CCC[C@@H](Nc3ncc(C#N)c(OC)n3)C1)C2 [Example 65, N-(2-((1S,3R)-3-((5-Cyano-4-methoxypyrimidin-2-yl)amino)cyclohexyl)-3-oxoisoindolin-5-yl)-N-methylacrylamide] here?
Its IC50 is under 50 nM.

How did the IC50 turn out when C=CC(=O)Nc1ccc2c(c1)C(=O)N([C@H]1CCC[C@@H](Nc3ncc(C#N)c(NCC(C)(C)O)n3)C1)C2 [Example 66, N-(2-((1S,3R)-3-((5-Cyano-4-((2-hydroxy-2-methylpropyl)amino)pyrimidin-2-yl)amino)cyclohexyl)-3-oxoisoindolin-5-yl)acrylamide] was run?
Its IC50 is under 50 nM.

C=CC(=O)Nc1ccc2c(c1)C(=O)N([C@H]1CCC[C@@H](Nc3ncc(C#N)c(NC)n3)C1)C2 [Example 67, N-(2-((1S,3R)-3-((5-Cyano-4-(methylamino)pyrimidin-2-yl)amino)cyclohexyl)-3-oxoisoindolin-5-yl)acrylamide] was tested. Which IC50 did it give?
Its IC50 is under 50 nM.

For C=CC(=O)Nc1ccc2c(c1)C(=O)N([C@H]1CCC[C@@H](Nc3ncc(Br)cn3)C1)C2 [Example 68, N-(2-((1S,3R)-3-((5-Bromopyrimidin-2-yl)amino)cyclohexyl)-3-oxoisoindolin-5-yl)acrylamide], which IC50 is on record?
The IC50 was under 50 nM.

How did the IC50 turn out when C=CC(=O)Nc1cccc2c1ncn2[C@H]1CCC[C@@H](Nc2ncc(C#N)cn2)C1 [Example 69, N-(1-((1S,3R)-3-((5-Cyanopyrimidin-2-yl)amino)cyclohexyl)-1H-benzo[d]imidazol-4-yl)acrylamide] was run?
Its IC50 is under 50 nM.

Which IC50 does the source give for C=CC(=O)Nc1ccc2c(c1)nc([C@H]1CC[C@@H](Nc3ncc(C#N)cn3)C1)n2C [Example 70, N-(2-((1S,3R)-3-((5-Cyanopyrimidin-2-yl)amino)cyclopentyl)-1-methyl-1H-benzo[d]imidazol-5-yl)acrylamide] here?
Its IC50 is under 50 nM.

With C=CC(=O)Nc1ccc2c(c1)nnn2[C@H]1CCC[C@@H](Nc2ncc(C#N)cn2)C1 [Example 71, N-(1-((1S,3R)-3-((5-Cyanopyrimidin-2-yl)amino)cyclohexyl)-1H-benzo[d][1,2,3]triazol-5-yl)acrylamide] as the molecule, how does the IC50 read?
The IC50 was under 50 nM.

How did the IC50 turn out when C=CC(=O)Nc1ccc2c(c1)nc([C@H]1CCC[C@@H](Nc3ncc(C(F)(F)F)cn3)C1)n2C [Example 72, N-(1-Methyl-2-((1S,3R)-3-((5-(trifluoromethyl)pyrimidin-2-yl)amino)cyclohexyl)-1H-benzo[d]imidazol-5-yl)acrylamide] was run?
The IC50 was under 50 nM.

For C=CC(=O)Nc1ccc2c(c1)nc([C@H]1CCC[C@@H](Nc3ncc(C#N)c(OC)n3)C1)n2C [Example 73, N-(2-((1S,3R)-3-((5-Cyano-4-methoxypyrimidin-2-yl)amino)cyclohexyl)-1-methyl-1H-benzo[d]imidazol-5-yl)acrylamide], which IC50 is on record?
The IC50 was under 50 nM.

Which IC50 does the source give for C=CC(=O)Nc1ccc2c(c1)nc([C@H]1CCC[C@@H](Nc3ncc(C#N)cn3)C1)n2C [Example 74, N-(2-((1S,3R)-3-((5-Cyanopyrimidin-2-yl)amino)cyclohexyl)-1-methyl-1H-benzo[d]imidazol-5-yl)acrylamide] here?
The IC50 was under 50 nM.

With C=CC(=O)Nc1ccc2c(c1)C(=O)N([C@H]1CCC[C@@H](Nc3ncc(Br)c(C(F)(F)F)n3)C1)C2 [Example 75, N-(2-((1S,3R)-3-((5-Bromo-4-(trifluoromethyl)pyrimidin-2-yl)amino)cyclohexyl)-3-oxoisoindolin-5-yl)acrylamide] as the molecule, how does the IC50 read?
The IC50 was under 50 nM.

With C=CC(=O)Nc1ccc2c(c1)C(=O)N([C@H]1CCC[C@@H](Nc3ncc(C#N)c(N4CCOCC4)n3)C1)C2 [Example 76, N-(2-((1S,3R)-3-((5-Cyano-4-morpholinopyrimidin-2-yl)amino)cyclohexyl)-3-oxoisoindolin-5-yl)acrylamide] as the molecule, how does the IC50 read?
The IC50 was under 50 nM.

How did the IC50 turn out when C=CC(=O)Nc1ccc2c(c1)C(=O)N([C@H]1CCC[C@@H](Nc3ncc(C#N)c(N(C)C)n3)C1)C2 [Example 77, N-(2-((1S,3R)-3-((5-Cyano-4-(dimethylamino)pyrimidin-2-yl)amino)cyclohexyl)-3-oxoisoindolin-5-yl)acrylamide] was run?
Its IC50 is under 50 nM.

For C=CC(=O)Nc1ccc2c(c1)C(=O)N([C@H]1CCC[C@@H](Nc3ncc(C(F)(F)F)c(NC)n3)C1)C2 [Example 78, N-(2-((1S,3R)-3-((4-(Methylamino)-5-(trifluoromethyl)pyrimidin-2-yl)amino)cyclohexyl)-3-oxoisoindolin-5-yl)acrylamide], which IC50 is on record?
The IC50 was under 50 nM.

How did the IC50 turn out when C=CC(=O)Nc1ccc2c(c1)ncn2[C@H]1CCC[C@@H](Nc2ncc(C#N)c(OC)n2)C1 [Example 79, N-(1-((1S,3R)-3-((5-Cyano-4-methoxypyrimidin-2-yl)amino)cyclohexyl)-1H-benzo[d]imidazol-5-yl)acrylamide] was run?
The IC50 was under 50 nM.

Which IC50 does the source give for C=C(Cl)C(=O)Nc1ccc2c(c1)nc([C@H]1CCC[C@@H](Nc3ncc(C#N)c(OC)n3)C1)n2C [Example 80, 2-Chloro-N-(2-((1S,3R)-3-((5-cyano-4-methoxypyrimidin-2-yl)amino)cyclohexyl)-1-methyl-1H-benzo[d]imidazol-5-yl)acrylamide] here?
The IC50 was under 50 nM.

With C=CC(=O)Nc1ccc2c(c1)C(=O)N([C@H]1CCC[C@@H](Nc3ncc(Cl)c(OC)n3)C1)C2 [Example 81, N-(2-((1S,3R)-3-((5-Chloro-4-methoxypyrimidin-2-yl)amino)cyclohexyl)-3-oxoisoindolin-5-yl)acrylamide] as the molecule, how does the IC50 read?
Its IC50 is under 50 nM.

How did the IC50 turn out when C=CC(=O)Nc1ccc2c(c1)C(=O)N([C@H]1CCC[C@@H](Nc3ncc(Cl)cn3)C1)C2 [Example 82, N-(2-((1S,3R)-3-((5-Chloropyrimidin-2-yl)amino)cyclohexyl)-3-oxoisoindolin-5-yl)acrylamide] was run?
The IC50 was under 50 nM.

C=CC(=O)Nc1ccc2c(c1)C(=O)N([C@H]1CCC[C@@H](Nc3ncc(C#N)c(OC)n3)C1)C2 [Example 83, N-(2-((1S,3R)-3-((5-Cyano-4-methoxypyrimidin-2-yl)amino)cyclohexyl)-3-oxoisoindolin-5-yl)acrylamide] was tested. Which IC50 did it give?
The IC50 was under 50 nM.
